Laboratory results as given in ChEMBL document CHEMBL1201862, “PubChem BioAssay data set” (2004).
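Interpolation was linear, between the two tested concentrations surrounding the appropriate level; five concentrations were tested over 48 hours in 96-well plates. Abbreviation: GI50, concentration required for 50% inhibition of growth.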 The source made the active and inactive calls. Cut-off read from the data, not from the text of the source: active = GI50 up to about 1.1 µM and inactive = higher.

Key:
Assay in all cases: NCI tumour cell line growth inhibition, 48 h
A498 = tested on: A498
A549 = tested on: A549
ACHN = tested on: ACHN
CCRF-CEM = tested on: CCRF-CEM
COLO 205 = tested on: COLO 205
DU-145 = tested on: DU-145
HCC 2998 = tested on: HCC 2998
HCT-116 = tested on: HCT-116
HCT-15 = tested on: HCT-15
HOP-92 = tested on: HOP-92
HT-29 = tested on: HT-29
Hs-578T = tested on: Hs-578T
K562 = tested on: K562
KM12 = tested on: KM12
LOX IMVI = tested on: LOX IMVI
MCF7 = tested on: MCF7
MDA-MB-231 = tested on: MDA-MB-231
MDA-MB-435 = tested on: MDA-MB-435
MDA-N = tested on: MDA-N
MOLT-4 = tested on: MOLT-4
NCI-H226 = tested on: NCI-H226
NCI-H23 = tested on: NCI-H23
NCI-H460 = tested on: NCI-H460
NCI-H522 = tested on: NCI-H522
NCI/ADR-RES = tested on: NCI/ADR-RES
OVCAR-8 = tested on: OVCAR-8
PC-3 = tested on: PC-3
RXF 393 = tested on: RXF 393
SF-268 = tested on: SF-268
SF-295 = tested on: SF-295
SK-MEL-28 = tested on: SK-MEL-28
SK-MEL-5 = tested on: SK-MEL-5
SK-OV-3 = tested on: SK-OV-3
SN12C = tested on: SN12C
SNB-19 = tested on: SNB-19
SNB-75 = tested on: SNB-75
SR = tested on: SR
SW-620 = tested on: SW-620
TK-10 = tested on: TK-10
U-251 = tested on: U-251
UACC-257 = tested on: UACC-257
UO-31 = tested on: UO-31
SF-539 = tested on: SF-539
UACC-62 = tested on: UACC-62
CAKI-1 = tested on: CAKI-1
EKVX = tested on: EKVX
HL-60 = tested on: HL-60
IGROV-1 = tested on: IGROV-1
M14 = tested on: M14
Malme-3M = tested on: Malme-3M
OVCAR-5 = tested on: OVCAR-5
RPMI-8226 = tested on: RPMI-8226
T47D = tested on: T47D
OVCAR-3 = tested on: OVCAR-3
OVCAR-4 = tested on: OVCAR-4

CCOC(=O)C1CSCCSC1 was tested, and the GI50 (A498) was 44.3 µM (inactive), the GI50 (A549) was > 100 µM (inactive) and the GI50 (ACHN) was > 100 µM (inactive). The GI50 (CCRF-CEM) was > 100 µM (inactive), the GI50 (COLO 205) was > 100 µM (inactive) and the GI50 (DU-145) was > 100 µM (inactive). The GI50 (HCC 2998) was 25.5 µM (inactive), the GI50 (HCT-116) was > 100 µM (inactive) and the GI50 (HCT-15) was greater than 100 µM. The GI50 (HOP-92) was > 100 µM (inactive), the GI50 (HT-29) was > 100 µM (inactive) and the GI50 (Hs-578T) was > 100 µM (inactive). The GI50 (K562) was > 100 µM (inactive), the GI50 (KM12) was > 100 µM (inactive) and the GI50 (LOX IMVI) was > 100 µM (inactive). The GI50 (MCF7) was > 100 µM (inactive), the GI50 (MDA-MB-231) was > 100 µM (inactive) and the GI50 (MDA-MB-435) was > 100 µM (inactive). The GI50 (MDA-N) was > 100 µM (inactive), the GI50 (MOLT-4) was > 100 µM (inactive) and the GI50 (NCI-H226) was > 100 µM (inactive). For the same compound, the GI50 (NCI-H23) was > 100 µM (inactive), the GI50 (NCI-H460) was 17.5 µM (inactive) and the GI50 (NCI-H522) was > 100 µM (inactive). For the same compound, the GI50 (NCI/ADR-RES) was > 100 µM (inactive), the GI50 (OVCAR-8) was > 100 µM (inactive) and the GI50 (PC-3) was > 100 µM (inactive). The GI50 (RXF 393) was > 100 µM (inactive), the GI50 (SF-268) was > 100 µM (inactive) and the GI50 (SF-295) was > 100 µM (inactive). The GI50 (SK-MEL-28) was > 100 µM (inactive), the GI50 (SK-MEL-5) was 43.2 µM (inactive) and the GI50 (SK-OV-3) was > 100 µM (inactive). The GI50 (SN12C) was > 100 µM (inactive), the GI50 (SNB-19) was > 100 µM (inactive) and the GI50 (SNB-75) was 43 µM (inactive). The GI50 (SR) was > 100 µM (inactive), the GI50 (SW-620) was > 100 µM (inactive) and the GI50 (TK-10) was > 100 µM (inactive). For the same compound, the GI50 (U-251) was > 100 µM (inactive), the GI50 (UACC-257) was > 100 µM (inactive) and the GI50 (UO-31) was > 100 µM (inactive).

O=C(O)CCCc1ccccc1 [SODIUM PHENYLBUTYRATE] was tested, and the GI50 (A498) was 144 µM (inactive), the GI50 (CCRF-CEM) was 63.5 µM (inactive) and the GI50 (HCC 2998) was 144 µM (inactive). The GI50 (HCT-15) was 137 µM, the GI50 (HOP-92) was 80.2 µM (inactive) and the GI50 (Hs-578T) was 182 µM (inactive). The GI50 (K562) was 102 µM (inactive), the GI50 (KM12) was 126 µM (inactive) and the GI50 (MOLT-4) was 117 µM (inactive). The GI50 (NCI-H460) was 118 µM (inactive), the GI50 (NCI-H522) was 110 µM (inactive) and the GI50 (RXF 393) was 193 µM (inactive). The GI50 (SF-539) was 177 µM (inactive), the GI50 (SK-MEL-5) was 162 µM (inactive) and the GI50 (SN12C) was 102 µM (inactive). For the same compound, the GI50 (UACC-62) was 172 µM (inactive) and the GI50 (UO-31) was 189 µM (inactive).

O=c1c2ccccc2nc2n1CCc1c-2[nH]c2ccccc12 [RUTAECARPINE] was tested, and the GI50 (CAKI-1) was 9.2 µM (inactive), the GI50 (COLO 205) was 21.8 µM (inactive) and the GI50 (DU-145) was 17.4 µM (inactive). The GI50 (EKVX) was 20.7 µM (inactive), the GI50 (HCT-116) was 17.5 µM (inactive) and the GI50 (HCT-15) was greater than 10 µM. The GI50 (HL-60) was 24.2 µM (inactive), the GI50 (HOP-92) was 15.6 µM (inactive) and the GI50 (IGROV-1) was 19.8 µM (inactive). The GI50 (K562) was 25.2 µM (inactive), the GI50 (KM12) was > 10 µM (inactive) and the GI50 (M14) was 17.1 µM (inactive). For the same compound, the GI50 (MDA-N) was 15.2 µM (inactive), the GI50 (MOLT-4) was 19.9 µM (inactive) and the GI50 (Malme-3M) was 28.8 µM (inactive). The GI50 (NCI-H23) was 17.8 µM (inactive), the GI50 (NCI/ADR-RES) was 19.5 µM (inactive) and the GI50 (OVCAR-5) was 17.4 µM (inactive). For the same compound, the GI50 (OVCAR-8) was 26.2 µM (inactive), the GI50 (PC-3) was 22.2 µM (inactive) and the GI50 (RPMI-8226) was 15 µM (inactive). For the same compound, the GI50 (RXF 393) was 18.8 µM (inactive), the GI50 (SF-268) was 26.8 µM (inactive) and the GI50 (SF-295) was 14.1 µM (inactive). The GI50 (SK-MEL-28) was 25.2 µM (inactive), the GI50 (SK-MEL-5) was 14.7 µM (inactive) and the GI50 (SK-OV-3) was 19.4 µM (inactive). The GI50 (SNB-19) was 15.8 µM (inactive), the GI50 (SNB-75) was 18.9 µM (inactive) and the GI50 (SR) was 24.4 µM (inactive). The GI50 (SW-620) was 18.6 µM (inactive), the GI50 (T47D) was 15.7 µM (inactive) and the GI50 (TK-10) was 29.6 µM (inactive). For the same compound, the GI50 (U-251) was 15.3 µM (inactive) and the GI50 (UO-31) was 14.9 µM (inactive).

In the case of COc1cc2c(cc1OC)C1C[C@]3(CCN1CC2)C(=O)N(c1ccccc1)C(=O)N3C(C)=O (some centres not stated), the GI50 (A498) is reported as > 200 µM (inactive), the GI50 (A549) is reported as > 200 µM (inactive) and the GI50 (ACHN) is reported as > 200 µM (inactive). For the same compound, the GI50 (CAKI-1) was > 200 µM (inactive), the GI50 (COLO 205) was > 200 µM (inactive) and the GI50 (DU-145) was > 200 µM (inactive). For the same compound, the GI50 (EKVX) was > 200 µM (inactive), the GI50 (HCT-116) was > 200 µM (inactive) and the GI50 (HCT-15) was greater than 200 µM. For the same compound, the GI50 (HOP-92) was > 200 µM (inactive), the GI50 (HT-29) was > 200 µM (inactive) and the GI50 (IGROV-1) was > 200 µM (inactive). For the same compound, the GI50 (KM12) was > 200 µM (inactive), the GI50 (M14) was > 200 µM (inactive) and the GI50 (MDA-MB-231) was > 200 µM (inactive). For the same compound, the GI50 (MDA-MB-435) was > 200 µM (inactive), the GI50 (MDA-N) was > 200 µM (inactive) and the GI50 (NCI-H226) was > 200 µM (inactive). For the same compound, the GI50 (NCI-H23) was > 200 µM (inactive), the GI50 (NCI/ADR-RES) was > 200 µM (inactive) and the GI50 (OVCAR-3) was > 200 µM (inactive). For the same compound, the GI50 (OVCAR-4) was > 200 µM (inactive), the GI50 (OVCAR-5) was > 200 µM (inactive) and the GI50 (OVCAR-8) was > 200 µM (inactive). For the same compound, the GI50 (PC-3) was > 200 µM (inactive), the GI50 (RXF 393) was > 200 µM (inactive) and the GI50 (SF-268) was > 200 µM (inactive). The GI50 (SF-295) was > 200 µM (inactive), the GI50 (SF-539) was > 200 µM (inactive) and the GI50 (SK-MEL-28) was > 200 µM (inactive). For the same compound, the GI50 (SK-MEL-5) was > 200 µM (inactive), the GI50 (SN12C) was > 200 µM (inactive) and the GI50 (SNB-19) was > 200 µM (inactive). For the same compound, the GI50 (SNB-75) was > 200 µM (inactive), the GI50 (SW-620) was > 200 µM (inactive) and the GI50 (TK-10) was > 200 µM (inactive). For the same compound, the GI50 (U-251) was > 200 µM (inactive) and the GI50 (UO-31) was > 200 µM (inactive).
